From ChEMBL document CHEMBL3588758, “Structure-Affinity Relationships (SARs) and Structure-Kinetics Relationships (SKRs) of Kv11.1 Blockers” (J Med Chem, 2015)

Columns and labels:
[1] = molecular target: T1, Voltage-gated inwardly rectifying potassium channel KCNH2 (Homo sapiens, UniProt Q12809)
Kv11.1 (KCNH2, hERG) [2] = molecular target: T2, Kv11.1 (KCNH2, hERG) (Homo sapiens, UniProt Q12809); assay: in vitro
Kv11.1 (KCNH2, hERG) [3] = molecular target: T2, Kv11.1 (KCNH2, hERG); assay: in vitro; remark: listed apart in the source
[4] = molecular target: T1, Voltage-gated inwardly rectifying potassium channel KCNH2; remark: listed apart in the source
Kv11.1 (KCNH2, hERG) [5] = molecular target: T2, Kv11.1 (KCNH2, hERG); assay: in vitro; remark: listed apart in the source
[6] = molecular target: T1, Voltage-gated inwardly rectifying potassium channel KCNH2; remark: listed apart in the source
Description: Inhibition of human Kv11.1 expressed in HEK293 cells assessed as inhibition of channel tail current at holding potential -80 mV by whole cell voltage clamp assay

T1 sequence (Q12809 whole entry): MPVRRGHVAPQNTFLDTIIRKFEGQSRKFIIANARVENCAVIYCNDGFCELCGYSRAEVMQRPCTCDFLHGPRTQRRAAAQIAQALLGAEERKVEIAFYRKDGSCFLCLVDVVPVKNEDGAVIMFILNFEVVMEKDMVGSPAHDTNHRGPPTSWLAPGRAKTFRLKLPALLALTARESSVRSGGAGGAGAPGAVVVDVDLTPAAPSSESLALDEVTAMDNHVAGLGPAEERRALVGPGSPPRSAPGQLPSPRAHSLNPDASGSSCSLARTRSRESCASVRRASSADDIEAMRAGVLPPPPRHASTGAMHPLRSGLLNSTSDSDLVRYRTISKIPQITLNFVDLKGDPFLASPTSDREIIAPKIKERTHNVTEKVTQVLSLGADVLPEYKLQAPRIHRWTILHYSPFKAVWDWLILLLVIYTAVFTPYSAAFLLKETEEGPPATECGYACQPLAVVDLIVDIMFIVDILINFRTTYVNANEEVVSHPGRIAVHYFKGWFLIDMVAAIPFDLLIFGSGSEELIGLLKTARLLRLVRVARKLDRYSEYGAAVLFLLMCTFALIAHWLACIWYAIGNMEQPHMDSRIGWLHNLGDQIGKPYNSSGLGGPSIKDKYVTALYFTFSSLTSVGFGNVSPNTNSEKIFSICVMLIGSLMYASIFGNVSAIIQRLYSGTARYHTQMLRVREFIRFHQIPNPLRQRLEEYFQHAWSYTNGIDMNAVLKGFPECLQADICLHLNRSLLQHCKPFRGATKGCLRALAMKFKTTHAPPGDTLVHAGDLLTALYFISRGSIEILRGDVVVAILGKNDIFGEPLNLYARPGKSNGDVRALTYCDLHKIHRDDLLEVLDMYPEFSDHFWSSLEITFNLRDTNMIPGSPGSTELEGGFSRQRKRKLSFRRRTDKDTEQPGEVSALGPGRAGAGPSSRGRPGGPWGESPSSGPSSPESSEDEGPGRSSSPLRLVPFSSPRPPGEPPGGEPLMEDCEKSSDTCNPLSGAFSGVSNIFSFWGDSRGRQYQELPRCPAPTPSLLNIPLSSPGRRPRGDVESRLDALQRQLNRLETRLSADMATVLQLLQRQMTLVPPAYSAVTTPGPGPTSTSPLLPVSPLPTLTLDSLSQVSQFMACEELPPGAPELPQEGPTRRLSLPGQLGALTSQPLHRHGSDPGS
T2 sequence (Q12809 whole entry): as above

Compound	Kd [1] [nM]	koff (Kv11.1 (KCNH2, hERG) [2]; hek293, probe [3H]dofetilide) [s⁻¹]	kon (Kv11.1 (KCNH2, hERG) [3]; hek293, probe [3H]dofetilide) [M⁻¹ s⁻¹]	Ki [4] [nM]	residence time (Kv11.1 (KCNH2, hERG) [5]; hek293, probe [3H]dofetilide) [min]	koff (Kv11.1 (KCNH2, hERG) [2]; hek293) [s⁻¹]	IC50 [6] [nM]	kon (Kv11.1 (KCNH2, hERG) [3]; hek293) [M⁻¹ s⁻¹]	residence time (Kv11.1 (KCNH2, hERG) [5]; hek293) [min]
O=C(c1ccccc1)N1CCN(CCc2ccccc2)CC1	1810	0.00767	4500	5420	2.2				
C[n+]1c(C#Cc2ccc(-c3ccccc3)cc2)cccc1C#Cc1ccc(-c2ccccc2)cc1	132			86		0.000158	107	1250	105
CCCCCCC[N+](CC)(CC)CC#Cc1ccc(Cl)cc1	1.2			1.8		0.00217		2.83e+06	7.7
O=[N+]([O-])c1ccc(CCNCCOc2ccc([N+](=O)[O-])cc2)cc1	53			47		0.0045		90000	3.7
CN(CCOc1ccc([N+](=O)[O-])cc1)CCc1ccc([N+](=O)[O-])cc1	20			24		0.0137		683000	1.2
CCN(CCOc1ccc([N+](=O)[O-])cc1)CCc1ccc([N+](=O)[O-])cc1	3	0.00433	2.5e+06	4.2	3.8				
N#CCN(CCOc1ccc([N+](=O)[O-])cc1)CCc1ccc([N+](=O)[O-])cc1	99			203		0.00667		76700	2.5
CC(=O)N(CCOc1ccc([N+](=O)[O-])cc1)CCc1ccc([N+](=O)[O-])cc1	132	0.03	163000	251	0.56				
O=C(N(CCOc1ccc([N+](=O)[O-])cc1)CCc1ccc([N+](=O)[O-])cc1)C(F)(F)F	247			355		0.0102		41700	1.6
CN(CCCCOc1ccc([N+](=O)[O-])cc1)CCc1ccc([N+](=O)[O-])cc1	0.73			1.6		0.00433		1.07e+07	3.8
CN(CCOc1ccc(Cl)c(Cl)c1)CCc1ccc(Cl)c(Cl)c1	5810	0.00317	1030	5570	5.3				
COc1ccc(CCN(C)CCOc2ccccc2)cc1	591	0.005	9330	944	3.3				
O=C(c1ccc(Cl)cc1)C1CCN(CCc2ccc(Cl)c(Cl)c2)CC1	36			54		0.0065		350000	2.6
C[N+]1(CCc2ccccc2)CCC(C(=O)c2ccc(Cl)cc2)CC1 (configuration not stated)	18			48		0.00583		800000	2.9
CCCN(CC)CC#Cc1ccc(C)cc1	637	0.0025	5170	1200	6.7				
CCCCCCCCc1cccc(CCCCCCCC)n1	191000			36900		0.000867		4.67	19
CCCCCCc1cccc(CCCCCC)[n+]1C	12			12		0.00383		333000	4.3
CCCCCCCc1cccc(CCCCCCC)[n+]1C	0.44	0.00167	4.17e+06	0.28	10				
CCCCCCCCCc1cccc(CCCCCCCCC)[n+]1C	4	0.00115	300000	3.4	14				
CCCCCCCCCCc1cccc(CCCCCCCCCC)[n+]1C	37			17		0.00107		28300	16
CCCCCCCCCCCCc1cccc(CCCCCCCCCCCC)[n+]1C	153	0.000467	3000	108	36				
CCCCCCCCCCC#Cc1cccc(C#CCCCCCCCCCC)[n+]1C	4260	0.002	550	1180	8.3				
C(#Cc1cccc(C#Cc2ccc(-c3ccccc3)cc2)n1)c1ccc(-c2ccccc2)cc1				> 100000					
C[n+]1c(CCc2ccc(-c3ccccc3)cc2)cccc1CCc1ccc(-c2ccccc2)cc1	60	0.00163	26700	63	10				
Cc1ccccc1-c1ccc(C#Cc2cccc(C#Cc3ccc(-c4ccccc4C)cc3)[n+]2C)cc1	203			577		0.00118		5830	14
COc1cccc(-c2ccc(C#Cc3cccc(C#Cc4ccc(-c5cccc(OC)c5)cc4)[n+]3C)cc2)c1	125			176		0.000783		6170	21
C[n+]1c(C#Cc2ccc(-c3cccc(Cl)c3)cc2)cccc1C#Cc1ccc(-c2cccc(Cl)c2)cc1	135			139		0.000183		1380	91
Cc1ccc(-c2ccc(C#Cc3cccc(C#Cc4ccc(-c5ccc(C)cc5)cc4)[n+]3C)cc2)cc1	440	0.00055	1430	303	30				
C[n+]1c(C#Cc2ccc(-c3ccc(O)cc3)cc2)cccc1C#Cc1ccc(-c2ccc(O)cc2)cc1	103	0.000883	8500	153	19				
C[n+]1c(C#Cc2ccc(-c3ccc(Cl)cc3)cc2)cccc1C#Cc1ccc(-c2ccc(Cl)cc2)cc1	100			71		0.000267		2670	63
